Results as given in US7146204B2, “Method and apparatus for quantitatively evaluating a kidney” (Yeda Research and Development Co., Ltd., priority 2002, dated 2006).
“Also recorded” adds a separate entry of the source.

Legend:
rat kidney [1] = experiment: dynamic 23Na MRI of renal sodium distribution after bolus injection of diuretic; type: in vivo; details: for characteristic time constant of sodium decay in the inner medulla: dynamic 23Na MRI after bolus injection, fitted to Equation 1, n=7; for decrease in sodium level in the inner medulla: relative to pre-treatment, diuresis steady state level, n=7
Protocol: Materials and Methods—Animals: Studies were performed on female Lewis rats, 2–4 months old and weighing 250–300 g, that had free access to food and water. […] All animal protocols and maintenance procedures were in accordance with the guidelines of the Committee on Animals of the Weizmann Institute of Science, and were approved by this Committee. […] Only one diuretic was injected into each rat. […] Image analysis: Analysis of the kidney images was performed on selected regions of interest (ROIs) in the outer, median and inner parts of the kidney, representing the cortex, outer and inner medulla, respectively. The ROIs were defined on the corresponding coronal proton image recorded prior to the sodium images, at the same spatial resolution. The average digitized pixel intensity for each ROI was measured, and the sodium gradient was assessed by averaging the ratio of the sodium signal intensity between the inner and the outer medulla, and between the inner medulla and the cortex. […] In this analysis, the signal intensity in each pixel was measured from the cortex to the inner medulla along the corticomedullary axis. This yielded a graph of pixel signal intensity versus the distance of the pixel from the cortex. In the dynamic study, the average signal intensities of the inner medulla and the cortex ROIs, defined on the proton image, were measured in sodium images recorded sequentially and were then plotted against time. Statistical analysis to evaluate differences between pixels or ROIs in the same kidney, or before and after diuretic treatment, were performed by a two-tailed paired Student's t-test; otherwise, the unpaired version of this test was used. Results are presented as mean±SEM.

rat kidney [2] = experiment: steady state diuresis 23Na MRI of corticomedullary sodium gradient; type: in vivo; details: for reduction in sodium content in the inner medulla (summary statement): after bolus injection; for change of the cortical-outer medullar sodium gradient versus control / cortical-outer medullar sodium gradient (slope): pixel-by-pixel analysis
Protocol: Materials and Methods—Animals: Studies were performed on female Lewis rats, 2–4 months old and weighing 250–300 g, that had free access to food and water. Before MRI scanning, the rats were anesthetized by an intraperitoneal injection of sodium pentobarbital at a dosage of 0.04 mg/g body wt. All animal protocols and maintenance procedures were in accordance with the guidelines of the Committee on Animals of the Weizmann Institute of Science, and were approved by this Committee.
(§1) Mannitol solution (20%, 1 ml) and saline solution (0.9% NaCl, 1 ml) were injected as a bolus into the tail vein. Only one diuretic was injected into each rat.
In vivo MRI: ^1H and ^23Na spectra and images were recorded at 200 and 53 MHz, respectively with a 4.7 T Biospec spectrometer (Bruker, Rheinstetten, Germany) using a home-built 3 cm double-tuned surface coil. The rat was placed on the coil in a supine position, keeping the estimated kidney position approximately in the middle of the coil. 3D ^1H gradient echo images were recorded to localize the exact kidney position, using TE/TR of 6/30 ms FOV of 12×12×3.2 cm and a matrix of 256×256×32. For defining the regions of interest (ROI), 3D ^1H images were recorded with the same spatial resolution as that of the sodium images.
In the “steady state” studies, sodium images were recorded prior to injection of the diuretic (control measurement) and fifteen minutes after its injection. 3D ^23Na gradient echo images were recorded using a TE/TR of 3.1/60 ms and a 90° OSIRREAD adiabatic pulse, FOV of 12×12×8 cm, and a matrix of 128×128×16 with 10 or 20 scans (20 or 40 min, respectively).
Image analysis: Analysis of the kidney images was performed on selected regions of interest (ROIs) in the outer, median and inner parts of the kidney, representing the cortex, outer and inner medulla, respectively. The ROIs were defined on the corresponding coronal proton image recorded prior to the sodium images, at the same spatial resolution. The average digitized pixel intensity for each ROI was measured, and the sodium gradient was assessed by averaging the ratio of the sodium signal intensity between the inner and the outer medulla, and between the inner medulla and the cortex.
In addition, a pixel-by-pixel analysis was performed, in order to assess the behavior of the NMR sodium signal along the corticomedullary axis. In this analysis, the signal intensity in each pixel was measured from the cortex to the inner medulla along the corticomedullary axis. This yielded a graph of pixel signal intensity versus the distance of the pixel from the cortex. In the dynamic study, the average signal intensities of the inner medulla and the cortex ROIs, defined on the proton image, were measured in sodium images recorded sequentially and were then plotted against time.
Statistical analysis to evaluate differences between pixels or ROIs in the same kidney, or before and after diuretic treatment, were performed by a two-tailed paired Student's t-test; otherwise, the unpaired version of this test was used. Results are presented as mean±SEM.
In-vivo MRI: ^1H and ^23Na images and spectra were recorded at 200 and 53 MHz respectively with a 4.7 T Biospec spectrometer (Bruker, Karlsrhue, Germany) using a home built 3-cm, ^1H and ^23Na tuned surface coil. The rat was placed on the coil in a supine position with the kidney positioned in the middle of the coil. Axial and coronal 3D ^1H gradient echo images were recorded for localization of the kidney using an echo time/repetition time (TE/TR) of 6/30 ms FOV of 12×12×3.2 cm and matrix of 256×256×32. 3D gradient echo ^23Na images were recorded using (TE/TR) of 1.7/60 ms and a 90° OSIRREAD adiabatic pulse, field of view (FOV) of 12×12×8 […], and matrix of 128×128×16, with 20 scans (40 min).
The sodium image was analyzed by a pixel by pixel analysis that was performed in order to assess the behavior of the NMR sodium signal along the corticomedullary axis.

[3] = urine sodium concentration by 23Na NMR spectroscopy; type: in vivo, rat; details: urine collected from 15 min after injection, n=3
Protocol: as §1
Urine sodium: Urine samples of untreated (control) and diuretic rats were collected in a metabolic cage. Collection of the urine from the diuretic rats started 15 minutes after injection of the diuretic, when the urine flow was constant. The urine samples were then centrifuged, and the supernatants transferred to a 5 mm NMR tube placed in the center of a 10 mm NMR tube. The external tube was used as an external reference, and contained a solution of 120 mM NaCl and 5 mM of the shift reagent: thulium (III) 1,4,7,10-tetraacyclododecane-1,4,7,10-tetrakis (methylene phosphonate) (TmDOTP^5−) (Macrocyclics, Dallas, Tex., USA) reaching total [Na^+] of 150 mM. ^23Na NMR spectra were recorded with a Bruker DMX-400 spectrometer (Bruker, Rheinstetten, Germany), using a multinuclei broad band probe at 106 MHz by acquiring 10 transients with 90° pulses, pulse-to-acquisition time of delay (DE) of 6 μs, 0.47 sec repetition time (TR) and 0.27 sec acquisition time. Analysis of the ^23Na spectra was performed with an XWIN-NMR Bruker software package. Sodium concentration in the urine was calculated from the integrated area of its signal referenced to the integrated area of the shifted signal of the sodium in the external tube solution (150 mM).

rat kidney [4] = experiment: steady state diuresis 23Na MRI of corticomedullary sodium gradient; type: in vivo; details: mannitol (1 ml, 0.1N), n=7
[5] = steady state diuresis, furosemide 10 mg/kg body wt, n=7

NS(=O)(=O)c1cc(C(=O)O)c(NCc2ccco2)cc1Cl [furosemide]
characteristic time constant of sodium decay in the inner medulla (rat kidney [1]): 6.1 ± 0.8 min
decrease in sodium level in the inner medulla (rat kidney [1]; dynamic study): 44±6%
reduction in sodium content in the inner medulla (summary statement) (rat kidney [2]; diuretic steady state): 50%
change of the cortical-outer medullar sodium gradient versus control (rat kidney [2]; diuresis steady state): five-fold reduction
cortical-outer medullar sodium gradient (slope) (rat kidney [2]; diuresis steady state, n=7): 0.10±0.01 a.u.×mm^−1
cortico-outer medullar sodium gradient during furosemide diuresis (rat kidney [2]; furosemide steady state diuresis, 10 mg/kg wt, n=7): 0.10±0.01 a.u×mm^−1
effect on the corticomedullary sodium gradient (rat kidney [2]; steady state diuresis): almost completely cancelled; also recorded: almost complete cancellation
decrease in sodium signal intensity in the inner medulla (rat kidney [2]; steady state diuresis, furosemide 1 mg/kg body weight, n=3): 10±2%
decrease in sodium signal intensity in the inner medulla (rat kidney [2]; steady state diuresis, furosemide 7 mg/kg body weight, n=4): 40±4%
decrease of average sodium signal intensity in the inner medulla (rat kidney [2]; [5]): 47±5%
decrease of average sodium signal intensity in the outer medulla (rat kidney [2]; [5]): 6±2%
increase of average sodium signal intensity in the cortex (rat kidney [2]; [5]): 25%±3%
increase of urine sodium concentration compared to the control [3]: 50±5%

OC[C@@H](O)[C@@H](O)[C@H](O)[C@H](O)CO [mannitol]
characteristic time constant of sodium decay in the inner medulla (rat kidney [1]): 2.5 ± 0.4 min
total increase in sodium concentration in the cortex (rat kidney [1]; dynamic study, after bolus injection): about 25%
rate of sodium reduction in the inner medulla relative to furosemide (rat kidney [1]; dynamic study, p=0.002): twice as rapidly; also recorded: more than twofold faster; also recorded: twofold faster decay
decrease in sodium level in the inner medulla (rat kidney [1]; dynamic study): 52±5%
reduction in sodium content in the inner medulla (summary statement) (rat kidney [2]; diuretic steady state): 50%
cortex to outer medulla sodium gradient relative to furosemide induced diuresis (rat kidney [2]; diuresis steady state): fivefold higher
change of the cortical-outer medullar sodium gradient versus control (rat kidney [2]; diuresis steady state): remained similar to that seen in control kidney
cortical-outer medullar sodium gradient (slope) (rat kidney [2]; diuresis steady state, n=7): 0.45±0.12 a.u.×mm^−1
change of the cortical-outer medullar sodium gradient versus control (rat kidney [2]; diuresis steady state, listed as Mannitol): did not affect
sodium concentration in the outer medulla compared to control (rat kidney [2]; diuretic steady state): increased compared to control
effect on the corticomedullary sodium gradient (rat kidney [2]; steady state diuresis): marked breakdown
decrease of urine sodium concentration compared to the control [3]: 49±3%
decrease of sodium concentration in the inner medulla (rat kidney [4]): 52±1%
increase of sodium signal intensity in the cortex (rat kidney [4]): 20±2%
increase of sodium signal intensity in the outer medulla (rat kidney [4]): 13±1%
